In patent US9744186B2 (priority 2012, dated 2017):

Tests used:
HCV luciferase replicon [1] = test: HCV luciferase replicon IC50 assay in Huh7 cells; conditions: for IC50: Hepatitis C virus, Huh-7, 48 h, Huh7 cells containing HCV luciferase replicon, cells exposed to drug for 48 h; for Therapeutic Index (TC50/IC50): TC50 in Huh7 / IC50 HCV replicon, 48 h
Description: Plating Cells: The Luciferase replicon cell line was passaged when it was at about 70% confluency. The cells were counted by using a hemocytometer and diluted to 1×10^5 cells per mL in DMEM+10% FBS+[…] G415. The cells were plated as follows: 100 μL of the cells (10,000 cells) per well in a white-walled 96-well plate. The cells were allowed to attach for 24 hours at 37° C.
(§1) Treating the cells: Media (DMEM+2% FBS) was pre-warmed to 37° C. […] The 96-well plate was removed from the 37° C. incubator, and the media replaced on the plate with the serial dilutions of the test drug. The plate was then returned to 37° C. for 48 h.
Luciferase Assay: The Bright-Glo reagent (Promega Corporation, Madison, Wis.) was removed from the −80° C. freezer and allowed to thaw it at 4° C. in the dark. The amount of reagent necessary for the experiment (3.65 mL) was removed, and the remaining reagent was returned to −80° C. The Glo Lysis Buffer and the Bright Glow reagent were allowed to warm to room temperature for 30 min in the dark. The 96 well plate was removed from the incubator and the cells to allowed cool to room temperature for 30 min. The media was removed from the cells, and each well was gently washed in 100 μL of phosphate buffered saline (PBS). The PBS was removed and then 50 μL of the Glo Lysis Buffer was added to each well, followed by gently rocking the plate for 15 min at room temperature in the dark to ensure complete cell lysis. To each well of the 96-well plate was added 50 μL of the Bright Glo reagent and it was mixed well with the lysate. The plate was inserted into a GloMax 96 plate reader and allowed to sit for 5 min in the dark for the luciferase reaction to reach a steady state. The luminescence on the plate was read by using the pre-installed “Bright Glo” Promega program (Synergy Software) and the data were collected and saved. The data were fit to a 4 parameter logistic curve using Kaleidagraph using the following equation: 100/(1+(x/m3)^m4).
The data in Table 1 were determined for cells exposed to drug for 48 h. The IC50 is the concentration of each compound necessary to inhibit the replication of the HCV luciferase replicon to 50%.
That is, the cells were exposed to drug for 2 h at 37° C., followed by 46 h at 37° C. or incubated in the presence of drug for 48 h at 37° C.

[2] = Compound solubility in media; format: physicochemical; conditions: DMEM+2% FBS cell culture media, 37 °C, plasma or biological fluid, kinetic from dmso stock; DMEM+2% FBS media
Description: as §1

in vitro = test: in vitro
Description: (§2) Plating Cells: The Huh7 cell line was passaged when it was at about 70% confluency. The cells were counted using a hemocytometer, followed by dilution of the cells to 0.5×10^5 cells per mL in DMEM+10% FBS. The cells were plated at 100 μL (5,000 cells) per well in a clear 96-well plate. The cells were allowed to attach for 24 hours at 37° C.
(§3) Treating the cells: The media (DMEM media without phenol red+2% FBS media) was pre-warmed to 37° C. […] This provided a final DMSO concentration of 0.5%. The 100 mM stock of 3,5-dichlorobenzoic acid was diluted in DMEM without phenol red+2% FBS to a concentration of 0.5 mM. The working 0.5 mM diluted test drugs were serially diluted in DMEM without phenol red+2% FBS+0.5% DMSO in order to maintain a constant concentration of DMSO in each condition. The 96-well plate was removed from the 37° C. incubator, and the media on the plate was replaced with media containing diluted test drug.
(§4) MTS Assay: The reagents from CellTiter 96 kit (Promega Corporation, Madison, Wis.) were thawed at room temperature in the dark for 1 h. The 96-well plate was removed from the 37° C. incubator at 48 h after drug treatment. 20 μL of the combined MTS/PMS reagent to each well of the plate, mixed, and the plate returned to 37° C. The absorbance of each well at 490 nm and 650 nm was determined using the Flexstation 3 microplate reader in endpoint mode every hour for 3 h. The solutions in the wells were mixed prior to each reading. The data were fit to the Emax model: y=(Emax*x)/(TC50+x), where Emax is the maximum inhibition and TC50 is the inhibitory dose 50%. Alternatively, the data can be fit to the Emax sigmoidal model: y=(Emax*x^slope)/(TC50^slope+x^slope), where slope is the Hill Slope.

[3] = TC50 MTS assay with human cancer cell lines: Huh7; format: cell-based; conditions: human, Huh7 cells; 48 h drug treatment; no hENT1 inhibitor; read-out: TC50 (μM) in Huh7 cells Control
Description: (§5) Plating Cells: The Huh7, HEPG2, HEK293, MCF-7, PK9, RPK9, or BxPC3 cells were passaged when they were about 70% confluent. The cells were counted using a hemocytometer, and then diluted cells to 0.5×10^5 cells per mL in DMEM+10% FBS. 100 µL of the cells (5,000 cells) were plated per well in a clear 96-well plate. The cells were allowed to attach for 24 hours at 37° C.
(§6) Treating the cells: Pre-warm the DMEM media without phenol red+2% FBS media to 37° C. […] This will bring the final DMSO concentration to 0.5%. Use these 0.5 mM dilutions to further serially the drugs in DMEM without phenol red+2% FBS+0.5% DMSO. This will keep the concentration of DMSO in each condition identical. Remove the 96-well plate from the 37° C. incubator. Replace the media on the plate with the dilutions of the drugs. Stagger these treatments by 1 h and write the treatment time on each set of plates. Return to 37° C. for 48 h or 96 h as indicated.
as §4, with “Fit Data” for “The data were fit”, “Alternatively, fit” for “Alternatively,”, “data” for “data can be fit”
(§7) Each TC50 was the average value of three measurements as described herein. […] The RPK9 cells are deficient in deoxycytidine kinase (“dCK”) activity, an enzyme required for the initial phosphorylation of dFdC to dFdCMP (see FIG. 2).

hENT1 = test: TC50 MTS assay with human cancer cell lines: Huh7; format: cell-based; conditions: human, Huh7 cells; 48 h drug treatment; 10 μM S-(4-nitrobenzyl)-6-thioinosine (hENT1 inhibitor) added; read-out: TC50 (μM) in Huh7 cells NBTI
Description: as §5, §6
as §4, with “Fit Data” for “The data were fit”, “Alternatively, fit” for “Alternatively,”, “data” for “data can be fit”
as §7

[4] = TC50 MTS assay with human cancer cell lines: HEK293; format: cell-based; conditions: HEK293 cells, 96 h drug treatment
Description: as §5, §6
as §4, with “Fit Data” for “The data were fit”, “Alternatively, fit” for “Alternatively,”, “data” for “data can be fit”
as §7

Huh7 cells [5] = test: TC50 MTS assay with human cancer cell lines: Huh7; format: cell-based; conditions: 96 h drug treatment
Description: as §5, §6
as §4, with “Fit Data” for “The data were fit”, “Alternatively, fit” for “Alternatively,”, “data” for “data can be fit”
as §7

HCV luciferase replicon [6] = test: Reversal of anti-HCV activity by exogenous nucleosides; format: cell-based, hepatitis C virus (HCV); conditions: 48 h
Description: After 48 hours, the cells were lysed, and the total luciferase activity was determined. […] Where indicated, either 50 μM cytidine (C) or 50 μM 2′-deoxycitidine (dC) was also included.
The cells were plated, incubated with drug, and luciferase activity assayed essentially as described herein above. The incubation with drug was for 48 h.

[7] = TC50 MTS assay with human cancer cell lines: HEPG2; format: cell-based; conditions: HEPG2 cells, 96 h drug treatment
Description: as §5, §6
as §4, with “Fit Data” for “The data were fit”, “Alternatively, fit” for “Alternatively,”, “data” for “data can be fit”
as §7

[8] = TC50 MTS assay with human cancer cell lines: MCF-7; format: cell-based; conditions: MCF-7 cells, 96 h drug treatment
Description: as §5, §6
as §4, with “Fit Data” for “The data were fit”, “Alternatively, fit” for “Alternatively,”, “data” for “data can be fit”
as §7

Huh7 cells [9] = test: in vitro; conditions: read-out: TC50; control Huh7 cells; 48 h drug exposure; MTS
Description: as §2, §3, §4

| SMILES | IC50 (HCV luciferase replicon [1]) | Therapeutic Index (TC50/IC50) (HCV luciferase replicon [1]) | solubility [2] | CC50 at 48 h (in vitro) | also measured |
| --- | --- | --- | --- | --- | --- |
| COc1ccc(C(=O)Nc2ccn(C3O[C@H](CO)[C@@H](O)C3(F)F)c(=O)n2)c(OC)c1OC (stereo partly drawn) [VV-022] | 0.0346 ± 0.0035 µM | 8670 | > 500 µM | 300 ± 39 µM |  |
| COc1c(Cl)cc(C(=O)Nc2ccn(C3O[C@H](CO)[C@@H](O)C3(F)F)c(=O)n2)cc1Cl (stereo partly drawn) [VV-012] | 0.0193 ± 0.0016 µM | >5180 | > 500 µM | > 100 µM |  |
| Cc1ccc(C(=O)Nc2ccn(C3O[C@H](CO)[C@@H](O)C3(F)F)c(=O)n2)cc1 (stereo partly drawn) [VV-036] | 0.0431 ± 0.0044 µM | 7650 |  |  | CC50 at 48 h [3]: 329 ± 57 µM; CC50 at 48 h (hENT1): 240 ± 40 µM |
| COc1cc(OC)cc(C(=O)Nc2ccn([C@@H]3O[C@H](CO)[C@@H](O)C3(F)F)c(=O)n2)c1 [Compound G3DB, N^4-(3,5-Dimethoxybenzoyl)gemcitabine] | 0.0734 ± 0.012 µM | 13100 | > 500 µM |  | CC50 at 96 h [4]: 4.02 ± 0.79 µM; CC50 (Huh7 cells [5]): 18.5 ± 5.32 µM; reversal of the inhibition of the HCV luciferase replicon by deoxycytidine and cytidine (HCV luciferase replicon [6]; drug 1000, 100 or 25 nM, 50 μM cytidine or 2′-deoxycitidine): reversal; CC50 at 96 h [7]: 3.86 ± 1.42 µM; CC50 at 96 h [8]: 1.57 ± 0.338 µM; CC50 (Huh7 cells [9]): 962 ± 110 µM |
| COc1cccc(OC)c1C(=O)Nc1ccn([C@@H]2O[C@H](CO)[C@@H](O)C2(F)F)c(=O)n1 [Compound G2DB, N^4-(2,6-Dimethoxybenzoyl)gemcitabine] | 0.451 ± 0.037 µM | 10155 |  |  | CC50 (Huh7 cells [9]): 4580 ± 1100 µM |
| O=C(Nc1ccn(C2O[C@H](CO)[C@@H](O)C2(F)F)c(=O)n1)c1ccc(Cl)c(Cl)c1 (stereo partly drawn) [VV-007] | 0.0174 ± 0.0018 µM | >5750 | > 500 µM | > 100 µM |  |
| NC(=O)c1ncn([C@@H]2O[C@H](CO)[C@@H](O)[C@H]2O)n1 [ribavirin, reference compound] | 51.6 ± 2.08 µM | 10.2 | > 500 µM | 527 ± 68.2 µM |  |
| O=C(O)c1cc(Cl)cc(Cl)c1 [3,5-dichlorobenzoic acid, reference compound] |  |  |  |  | effect on the HCV luciferase replicon (HCV luciferase replicon [6]; up to 500 μM): little effect |
| O=C(Nc1ccn(C2O[C@H](CO)[C@@H](O)C2(F)F)c(=O)n1)c1ccc(Cl)cc1Cl (stereo partly drawn) [VV-006] | 0.0775 ± 0.007 µM | >1290 | < 500 µM | > 100 µM |  |
| O=C(Nc1ccn(C2O[C@H](CO)[C@@H](O)C2(F)F)c(=O)n1)c1ccc(Cl)cc1 (stereo partly drawn) [VV-033H] | 0.0376 ± 0.0054 µM | 3670 |  | 138 ± 28 µM |  |
| CCc1ccc(C(=O)Nc2ccn(C3O[C@H](CO)[C@@H](O)C3(F)F)c(=O)n2)cc1 (stereo partly drawn) [VV-038] | 0.0584 ± 0.0099 µM | 8430 |  |  | CC50 at 48 h [3]: 492 ± 58 µM; CC50 at 48 h (hENT1): 360 ± 80 µM |
| COc1ccc(C(=O)Nc2ccn(C3O[C@H](CO)[C@@H](O)C3(F)F)c(=O)n2)cc1 (stereo partly drawn) [VV-013] | 0.06 ± 0.0082 µM | 9530 | > 500 µM | 572 ± 73 µM |  |
